Source: patent US9156840B2, “D2 antagonists, methods of synthesis and methods of use” (ALTOS THERAPEUTICS, LLC, priority 2010, dated 2015)
Where a name gives a salt, the structure may show the parent alone.

The molecules below were run against T1, human D2 receptor (Homo sapiens, UniProt P14416) (assay: D2 receptor radioligand binding assay (membranes of HEK-293 cells expressing human D2 receptor)). Conditions: not given.
T1 construct: expressed in transfected cells; cDNA from Origene clones TC308892 and SC123573
Protocol: Affinity for the dopamine D2 receptor was tested in vitro, and the following describes the construction of cell lines expressing human D2 receptor, as well as the binding assays themselves.
Establishment of Stable Cell Lines Expressing Either the Cloned Human D2S Receptor or the Cloned Human D2L Receptor.
The human D2 receptor exists in two isoforms: the short form (D2S) and the long form (D2L). The two isoforms are generated from the D2 gene by alternative splicing and the D2L isoform differs from the D2S isoform by the addition of 29 amino acids in the third intracellular loop of its protein structure.
To establish HEK-293 cell lines stably expressing either the human D2S or the human D2L, the human dopamine D2S receptor (Genebank Accession Number NM_016574) and human dopamine D2L receptor (Genebank Accession Number BC021195) were amplified by PCR from Origene cDNA clones TC308892 and SC123573 (respectively) using the following primers: 5-[…]-3 (SEQ ID NO: 1) sense and 5-[…]-3 (SEQ ID NO: 2) antisense. The resulting PCR products were respectively cloned into pENTR-D-TOPO (Invitrogen), sequenced and then transferred into the pCDNA3.2-DEST (Invitrogen) using the LR-clonasc gateway reaction (Invitrogen) and sequenced again to verify the genes sequence.
HEK293 cells were maintained in Eagles Minimum Essential Medium (MEM) supplemented with 0.292 g/L L-glutamine and 10% (v/v) fetal calf serum at 37° C. in a 5% CO2 humidified atmosphere. Cells were grown to 60-80% confluency in 10 cm dishes before transfection. Transfection of the D2S and D2L containing pcDNA3.2-DEST into HEK-293 cells were performed using Lipofectamine 2000 (Invitrogen). Transfected cells were seeded and diluted 2 days after transfection and maintained in culture medium supplemented with 500 μg/mL G418. The HEK-293 cell line expressing the huD2S (R2D2S) and the huD2L (R2D2L) were maintained in culture medium supplemented with 500 μg/mL G418.
D2 Receptor Binding Assays
HEK293 cells were in Eagles Minimum Essential Medium (MEM) supplemented with 10% FBS, 0.292 g/liter L-glutamine, 10^5 units/liter penicillin, 100 mg/liter streptomycin and […] Geneticin at 37° C. in a 5% CO2 humidified atmosphere. Cells were grown to 80-90% confluence and harvested with cell stripper (Cellgro #25-056-CI). Cells were then washed with PBS (2×). Cells were either pelleted and frozen at −80° C. or membranes were prepared immediately.
Cells from pellet were resuspended in homogenization buffer (15 mM Tris*HCl, 2 mM MgCl2*6H2O, 0.3 mM EDTA, 1 mM EGTA pH 7.4 @ 4° C.). Cells were then homogenized using a Polytron (PT 1200) homogenizer at setting 6 for 10 seconds. Crude membranes were pelleted at 39, 412 g for 15 min, at 4° C. (2×) in a Sorval RC6 plus centrifuge. Membranes were finally resuspended in resuspension buffer (50 mM Tris*HCl, 120 mM NaCl, 10 mM MgCl2*6H2O, 1 mM EDTA pH 7.4 @ 4° C.) and sonicated (Fisher Sonic Dismembrator) at setting 5 for 10 seconds.
The radioligand binding assays were conducted in microtiter plates (Costar #3961) with a final volume of 1.0 mL.
The membranes were thawed at room temperature, briefly homogenized using a sonicator, diluted in assay buffer and kept on wet ice until being added to the assay plate. Membranes were diluted to a final target tissue concentration of 10 μg protein per well. The specific binding should be greater than 80% with less than 10% total radioligand bound to minimize ligand depletion errors.
First compound of the invention (50 μL) or assay buffer (50 mM Tris*HCl, 120 mM NaCl, 5 mM MgCl2*6H2O, 1 mM EDTA, 5 mM KCl pH 7.4 @37° C. plus 0.025% BSA), buffer (700 μL) and then membrane (200 μL) were added to the deep well assay plate, which was then shaken for 10 minutes. Finally, radioligand (50 μL) was added.
The assay plates were incubated at 37° C. for 120 minutes.
The assay plate were filtered over 0.3% PEI pretreated glass fiber filtermats (GF/C) using a Packard Filtermate cell harvester. […]

T1 sequence (P14416 whole entry): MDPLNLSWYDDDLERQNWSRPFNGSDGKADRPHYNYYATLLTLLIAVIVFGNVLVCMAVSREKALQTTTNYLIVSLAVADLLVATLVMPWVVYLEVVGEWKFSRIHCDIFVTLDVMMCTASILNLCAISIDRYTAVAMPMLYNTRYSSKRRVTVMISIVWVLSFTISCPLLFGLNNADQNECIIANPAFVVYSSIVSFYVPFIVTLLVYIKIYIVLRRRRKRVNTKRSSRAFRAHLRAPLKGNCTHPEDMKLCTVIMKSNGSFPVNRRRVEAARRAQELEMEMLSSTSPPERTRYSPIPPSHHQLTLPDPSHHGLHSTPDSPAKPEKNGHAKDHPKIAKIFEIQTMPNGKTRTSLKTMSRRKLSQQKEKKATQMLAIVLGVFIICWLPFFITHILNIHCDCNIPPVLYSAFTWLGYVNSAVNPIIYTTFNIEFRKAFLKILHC

For `O=C(O[C@H]1CN2CCC1CC2)c1cccc(CN2CN(c3ccccc3)C3(CCN(CCCn4c(=O)[nH]c5ccccc54)CC3)C2=O)c1` [Compound 26, (R)-Quinuclidin-3-yl 3-((4-oxo-8-(3-(2-oxo-2,3-dihydro-1H-benzo[d]imidazol-1-yl)propyl)-1-phenyl-1,3,8-triazaspiro[4.5]decan-3-yl)methyl)benzoate], which IC50 is on record?
The IC50 was less than 10 nM.

Same assay, conditions: radioligand displacement, HEK293 membranes, 37° C. for 120 minutes; read-out: Affinity Score (IC50 values for D2 on a scale of 1 through 5)

How did the IC50 turn out when `O=C(O)c1cccc(CN2CN(c3ccccc3)C3(CCN(CCCn4c(=O)[nH]c5ccccc54)CC3)C2=O)c1` [Compound 11, 3-((4-Oxo-8-(3-(2-oxo-2,3-dihydro-1H-benzo[d]imidazol-1-yl)propyl)-1-phenyl-1,3,8-triazaspiro[4.5]decan-3-yl)methyl)benzoic acid] was run?
Its IC50 is less than 10 nM.

Which IC50 does the source give for `O=C(O)c1ccc(CN2CN(c3ccccc3)C3(CCN(CCCn4c(=O)[nH]c5ccccc54)CC3)C2=O)cc1` [Compound 17, 4-((4-Oxo-8-(3-(2-oxo-2,3-dihydro-1H-benzo[d]imidazol-1-yl)propyl)-1-phenyl-1,3,8-triazaspiro[4.5]decan-3-yl)methyl)benzoic acid] here?
Its IC50 is less than 10 nM.

Which IC50 does the source give for `O=C(O)c1ccccc1CN1CN(c2ccccc2)C2(CCN(CCCn3c(=O)[nH]c4ccccc43)CC2)C1=O` [Compound 19, 2-((4-Oxo-8-(3-(2-oxo-2,3-dihydro-1H-benzo[d]imidazol-1-yl)propyl)-1-phenyl-1,3,8-triazaspiro[4.5]decan-3-yl)methyl)benzoic acid] here?
The IC50 was less than 10 nM.

How did the IC50 turn out when `O=C(CCCCCN1CN(c2ccccc2)C2(CCN(CCCn3c(=O)[nH]c4ccccc43)CC2)C1=O)OCc1ccccc1` [Compound 21, Benzyl 6-(4-oxo-8-(3-(2-oxo-2,3-dihydro-1H-benzo[d]imidazol-1-yl)propyl)-1-phenyl-1,3,8-triazaspiro[4.5]decan-3-yl)hexanoate] was run?
The IC50 was less than 10 nM.

Which IC50 does the source give for `O=C(O)CCCCCN1CN(c2ccccc2)C2(CCN(CCCn3c(=O)[nH]c4ccccc43)CC2)C1=O` [Compound 22, 6-(4-Oxo-8-(3-(2-oxo-2,3-dihydro-1H-benzo[d]imidazol-1-yl)propyl)-1-phenyl-1,3,8-triazaspiro[4.5]decan-3-yl)hexanoic acid] here?
The IC50 was less than 10 nM.

For `O=C(OCCN1CCOCC1)c1cccc(CN2CN(c3ccccc3)C3(CCN(CCCn4c(=O)[nH]c5ccccc54)CC3)C2=O)c1` [Compound 25, 2-Morpholinoethyl 3-((4-oxo-8-(3-(2-oxo-2,3-dihydro-1H-benzo[d]imidazol-1-yl)propyl)-1-phenyl-1,3,8-triazaspiro[4.5]decan-3-yl)methyl)benzoate], which IC50 is on record?
Its IC50 is less than 10 nM.

For `CCN(CC)C(=O)COC(=O)c1cccc(CN2CN(c3ccccc3)C3(CCN(CCCn4c(=O)[nH]c5ccccc54)CC3)C2=O)c1` [Compound 30, 2-(Diethylamino)-2-oxoethyl 3-((4-oxo-8-(3-(2-oxo-2,3-dihydro-1H-benzo[d]imidazol-1-yl)propyl)-1-phenyl-1,3,8-triazaspiro[4.5]decan-3-yl)methyl)benzoate], which IC50 is on record?
The IC50 was less than 10 nM.

Which IC50 does the source give for `COC(=O)[C@@H](c1ccccc1)N1CN(c2ccccc2)C2(CCN(CCCn3c(=O)[nH]c4ccccc43)CC2)C1=O` [Compound 34, (R)-methyl 2-(4-oxo-8-(3-(2-oxo-2,3-dihydro-1H-benzo[d]imidazol-1-yl)propyl)-1-phenyl-1,3,8-triazaspiro[4.5]decan-3-yl)-2-phenylacetate] here?
Its IC50 is less than 10 nM.

With `CN1CCN(C(=O)COC(=O)c2cccc(CN3CN(c4ccccc4)C4(CCN(CCCn5c(=O)[nH]c6ccccc65)CC4)C3=O)c2)CC1` [Compound 35, 2-(4-Methylpiperazin-1-yl)-2-oxoethyl 3-((4-oxo-8-(3-(2-oxo-2,3-dihydro-1H-benzo[d]imidazol-1-yl)propyl)-1-phenyl-1,3,8-triazaspiro[4.5]decan-3-yl)methyl)benzoate] as the molecule, how does the IC50 read?
The IC50 was less than 10 nM.

With `O=C(O)[C@@H](c1ccccc1)N1CN(c2ccccc2)C2(CCN(CCCn3c(=O)[nH]c4ccccc43)CC2)C1=O` [Compound 39, (R)-2-(4-oxo-8-(3-(2-oxo-2,3-dihydro-1H-benzo[d]imidazol-1-yl)propyl)-1-phenyl-1,3,8-triazaspiro[4.5]decan-3-yl)-2-phenylacetic acid] as the molecule, how does the IC50 read?
Its IC50 is less than 10 nM.

For `O=C(O)[C@H](c1ccccc1)N1CN(c2ccccc2)C2(CCN(CCCn3c(=O)[nH]c4ccccc43)CC2)C1=O` [Compound 40, (S)-2-(4-oxo-8-(3-(2-oxo-2,3-dihydro-1H-benzo[d]imidazol-1-yl)propyl)-1-phenyl-1,3,8-triazaspiro[4.5]decan-3-yl)-2-phenylacetic acid], which IC50 is on record?
The IC50 was less than 10 nM.

With `O=C(O)c1cccc(CN2CN(c3ccc(F)cc3)C3(CCN(CCCn4c(=O)[nH]c5ccccc54)CC3)C2=O)c1` [Compound 43, 3-((1-(4-Fluorophenyl)-4-oxo-8-(3-(2-oxo-2,3-dihydro-1H-benzo[d]imidazol-1-yl)propyl)-1,3,8-triazaspiro[4.5]decan-3-yl)methyl)benzoic acid] as the molecule, how does the IC50 read?
The IC50 was less than 10 nM.

With `O=C(O)c1cccc(CN2CN(c3ccccc3)C3(CCN(CCCn4c(=O)sc5ccccc54)CC3)C2=O)c1` [Compound 52, 3-((4-Oxo-8-(3-(2-oxobenzo[d]thiazol-3(2H)-yl)propyl)-1-phenyl-1,3,8-triazaspiro[4.5]decan-3-yl)methyl)benzoic acid] as the molecule, how does the IC50 read?
Its IC50 is less than 10 nM.

Which IC50 does the source give for `COc1ccc(N2CN(Cc3cccc(C(=O)O)c3)C(=O)C23CCN(CCCn2c(=O)[nH]c4ccccc42)CC3)cc1` [Compound 56, 3-((1-(4-Methoxyphenyl)-4-oxo-8-(3-(2-oxo-2,3-dihydro-1H-benzo[d]imidazol-1-yl)propyl)-1,3,8-triazaspiro[4.5]decan-3-yl)methyl)benzoic acid] here?
The IC50 was less than 10 nM.

How did the IC50 turn out when `COC(=O)c1cccc(CN2CN(c3ccccc3)C3(CCN(CCCc4c[nH]c5ccccc45)CC3)C2=O)c1` [Compound 57, methyl 3-((8-(3-(1H-indol-3-yl)propyl)-4-oxo-1-phenyl-1,3,8-triazaspiro[4.5]decan-3-yl)methyl)benzoate] was run?
Its IC50 is less than 10 nM.

For `O=C(O)CCCC(c1ccccc1)N1CN(c2ccccc2)C2(CCN(CCCn3c(=O)[nH]c4ccccc43)CC2)C1=O` (centres unmarked) [Compound 69, 5-(4-Oxo-8-(3-(2-oxo-2,3-dihydro-1H-benzo[d]imidazol-1-yl)propyl)-1-phenyl-1,3,8-triazaspiro[4.5]decan-3-yl)-5-phenylpentanoic acid], which IC50 is on record?
Its IC50 is less than 10 nM.

For `O=C(O)CC(c1ccccc1)N1CN(c2ccccc2)C2(CCN(CCCn3c(=O)[nH]c4ccccc43)CC2)C1=O` (centres unmarked) [Compound 70, 3-(4-Oxo-8-(3-(2-oxo-2,3-dihydro-1H-benzo[d]imidazol-1-yl)propyl)-1-phenyl-1,3,8-triazaspiro[4.5]decan-3-yl)-3-phenylpropanoic acid], which IC50 is on record?
Its IC50 is less than 10 nM.

`O=C(O)c1cccc(CN2CN(c3ccccc3)C3(CCN(CCCN4C(=O)COc5ccccc54)CC3)C2=O)c1` [Compound 71, 3-((4-Oxo-8-(3-(3-oxo-2H-benzo[b][1,4]oxazin-4(3H)-yl)propyl)-1-phenyl-1,3,8-triazaspiro[4.5]decan-3-yl)methyl)benzoic acid] was tested. Which IC50 did it give?
Its IC50 is less than 10 nM.

With `O=C(O)c1cccc(CN2CN(C3CCCCC3)C3(CCN(CCCn4c(=O)[nH]c5ccccc54)CC3)C2=O)c1` [Compound 72, 3-((1-cyclohexyl-4-oxo-8-(3-(2-oxo-2,3-dihydro-1H-benzo[d]imidazol-1-yl)propyl)-1,3,8-triazaspiro[4.5]decan-3-yl)methyl)benzoic acid, formate] as the molecule, how does the IC50 read?
Its IC50 is less than 10 nM.
